Test: RP, Advanced Chromatography Technologies ACE C18, 50 × 2.1 mm, 3 µm; A: water + 10 mM ammonium acetate; B: acetonitrile; gradient (min/%B) 0/5 1/5 21/95
Settings: stereoisomer not certain

| Structure (SMILES) | LC retention time |
| --- | --- |
| CC(C)(c1ccccc1)c1cc(-n2nc3ccccc3n2)c(O)c(C(C)(C)c2ccccc2)c1 | 19.4 min |
| c1ccc2n[nH]nc2c1 [1-H-benzotriazole] | 3.14 min |
| Nc1c(Cl)cc([N+](=O)[O-])cc1Cl [2,6-dichloro-4-nitroaniline] | 9.41 min |
| c1ccc2sc(SSc3nc4ccccc4s3)nc2c1 [2-2'-dithiobisbenzothiazole] | 14.6 min |
| CC(C)(C)c1cc(-n2nc3ccc(Cl)cc3n2)c(O)c(C(C)(C)C)c1 [2-4-di-tert-butyl-6-(5-chlorobenzotriazol-2-yl)phenol] | 20.7 min |
| Nc1ccc([N+](=O)[O-])cc1[N+](=O)[O-] [2-4-dinitroaniline] | 7.02 min |
| CCC(C)(C)c1cc(-n2nc3ccccc3n2)c(O)c(C(C)(C)CC)c1 [2-(2H-benzotriazol-2-yl)-4-6-di-tert-pentylphenol] | 20.8 min |
| Cc1ccc(O)c(-n2nc3ccccc3n2)c1 [2-(benzotriazol-2-yl)-4-methylphenol] | 13.3 min |
| Nc1c(Br)cc([N+](=O)[O-])cc1[N+](=O)[O-] [2-bromo-4,6-dinitroaniline] | 8.73 min |
| CSc1nc2ccccc2s1 [2-methylthiobenzothiazole] | 9.58 min |
| Cc1cc2n[nH]nc2cc1C [5-6-Dimethyl-2H-benzotriazole] | 5.73 min |
| Cc1ccc2n[nH]nc2c1 [5-Methyl-1H-benzotriazole] | 4.65 min |
| Nc1c(Cl)cc([N+](=O)[O-])cc1[N+](=O)[O-] [6-chloro-2-4-dinitroaniline] | 8.9 min |
| c1ccc2scnc2c1 [Benzothiazole] | 5.38 min |
| CC(C)COC(=O)c1ccccc1C(=O)OCC(C)C [Diisobutyl phthalate] | 14 min |
| c1ccc2sc(SNC3CCCCC3)nc2c1 [N-cyclohexyl-2-benzothiazolesulphenamide] | 13.7 min |
| c1ccc2ncccc2c1 [Quinoline] | 6.1 min |

Reference: the RepoRT retention time repository
